Several values for one entry are separate records, joined by “and”; a condition that tells them apart may be missing. Identical values can stand only once. Activity calls are given as the source filed them.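 Rule for the calls: active = compounds giving half or more protection of infected cells from virus-caused growth loss, again on retest; inactive = the rest.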
Test system: CEM cells HIV-1 protection, formazan growth assay
Assay: NCI AIDS Antiviral Assay
Conditions: for IC50: measured here: growth of uninfected CEM cells
How it was run: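 Five concentrations of each compound were applied to infected and uninfected human CEM cells. Protection from HIV-1 was judged from growth measured with a soluble formazan assay.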

CC(=O)[O-].CC(=O)[O-].CC(=O)[O-].CC(=O)[O-].CO.CO.CO.[Rh+2].[Rh+2].c1ccc(-c2ccccn2)nc1
EC50: 145 µM
IC50: 174 µM

CNS(=O)(=O)NNS(=O)(=O)c1ccccc1
EC50: > 933 µM
IC50: > 200 µM

O=S(=O)(O)c1cc(N=Nc2c(O)ccc3ccccc23)ccc1/C=C/c1ccc(N=Nc2c(O)ccc3ccccc23)cc1S(=O)(=O)O
EC50: > 50.1 µM
IC50: > 50.1 µM

C=C1CCOC2(C(O)C(C)(O)CO)NC(=O)C1(O)NC2=O (configuration not stated)
outcome: inactive

CSC1SCC2C(=O)N(C)C3(CC3C)C(=O)OCC(NC(=O)c3nc4ccccc4cc3O)C(=O)NC(C)C(=O)N(C)C1C(=O)N(C)C1(CC1C)C(=O)OCC(NC(=O)c1nc3ccccc3cc1O)C(=O)NC(C)C(=O)N2C (configuration not stated)
EC50: > 8.32 µM
IC50: 0.00263 µM

O=C(CCc1cc(O)ccc1O)OCCc1ccccc1
EC50: > 20 µM
IC50: 10.2 µM

O=C1CC(c2ccccc2)S(=O)c2ccccc2N1 (configuration not stated)
EC50: > 200 µM
IC50: > 200 µM

NCC1=NCCN1
EC50: > 200 µM
IC50: > 200 µM

Oc1ccccc1-c1nnc2sc3c(Cl)c4nn5c(-c6ccccc6O)nnc5sc4c(Cl)c3nn12
EC50: > 200 µM
IC50: 36.3 µM

O=c1ccc2ccc(O)c(O)c2o1
EC50: > 1410 µM
IC50: 66.1 µM

N#C/C(=C\c1ccc(-c2ccccc2)cc1)c1ccccc1
EC50: > 200 µM
IC50: 170 µM

N#CC1=C(N)Oc2c(ccc3cccnc23)C1c1ccccc1 (configuration not stated)
EC50: > 120 µM
IC50: 1.7 µM

CCOC(=O)C1=C(O)c2ccc(C)cc2C(=O)C1=O
EC50: > 955 µM
IC50: 324 µM

CC1=Nc2sc3c(c2C2=NCCN12)CCCC3
EC50: > 200 µM
IC50: 34.7 µM

Cc1nc2ccccc2nc1CC(=O)C(=O)Nc1ccc(Cl)cc1Cl
EC50: 302 µM
IC50: 347 µM

Clc1ccc(OCc2nnc(CCCCCCCCc3nnc(COc4ccc(Cl)cc4Cl)n3Nc3ccccc3)n2Nc2ccccc2)c(Cl)c1
EC50: > 0.501 µM
IC50: > 0.501 µM

CCC(C)C(NC(=O)C(CCCCN)NC(=O)CNC(=O)C(NC(=O)C(NC(=O)C(NC(=O)C(Cc1ccccc1)NC(=O)C(C)NC(=O)C(CCCNC(=N)N)NC(=O)CNC(=O)C1CCCN1C(=O)CNC(=O)C(CCCNC(=N)N)NC(=O)C(CCC(N)=O)NC(=O)C(NC(=O)C(CCCNC(=N)N)NC(=O)C(NC(=O)C(CO)NC(=O)C(CCCCN)NC(=O)C(CCCNC(=N)N)NC(=O)C(NC(=O)C(CC(N)=O)NC(=O)C(N)CC(N)=O)C(C)O)C(C)CC)C(C)CC)C(C)C)C(C)OC1OC(CO)C(O)C(O)C1NC(C)=O)C(C)CC)C(=O)NCC(N)=O (configuration not stated)
EC50: 24.5 µM
IC50: 50.1 µM

COC(=O)c1ccccc1/C=C1\Cc2cc(C)c(C)cc2C1=O
EC50: > 100 µM
IC50: > 100 µM

NC1=Nc2ncccc2C(=O)NN1
EC50: > 200 µM
IC50: 117 µM

Cc1cc(OC(=O)NCn2cc(-c3ccccc3)nn2)ccc1Cl
EC50: > 200 µM
IC50: 95.5 µM

N#C/C(=C\c1c(Cl)cccc1Cl)c1ccccc1
EC50: > 50.1 µM
IC50: 28.8 µM

Cc1cc(S(=O)(=O)O)c(NC(=O)c2oc3cc(O)ccc3c(=O)c2C)cc1Cl
EC50: > 589 µM
IC50: > 589 µM

CC(=O)C(=Cc1ccc(-c2ccccc2)cc1)C(C)=O
EC50: > 19.5 µM
IC50: > 19.5 µM

COCCOCCOCCOCCOCCOCCOCCOCCOCCOCCOCCOCCOCCOCCOCCOCCOCC(=O)N(CCn1ccc(N)nc1=O)CCn1cnc2nc(N)[nH]c(=O)c21
EC50: > 117 µM
IC50: > 117 µM

C=CCNC(=O)NC(=O)CSC1=NNC2(C(=O)N1)c1ccccc1-c1ccccc12
EC50: > 200 µM
IC50: 29.5 µM

Cc1ccc(SC(=O)N2C(=S)NC(=NC3CCCCC3)C23CCCCC3)cc1
EC50: > 200 µM
IC50: 32.4 µM

COc1ccc(C(=O)CCN(C)C)cc1
EC50: > 200 µM
IC50: 36.3 µM

CCC1C(=O)OCc2ccccc21 (configuration not stated)
EC50: > 200 µM
IC50: > 200 µM

N[C@@H](Cc1ccccc1)C(=O)N1CCC[C@@H]1P(=O)(Oc1ccccc1)Oc1ccccc1
outcome: inactive

CC1C=CC(C(=O)O)C2C(=O)OC(=O)C12 (configuration not stated)
EC50: > 1200 µM
IC50: > 1200 µM

Cn1c(=O)[nH]c2c(c1=O)CCCS2
EC50: > 251 µM
IC50: > 251 µM

O=P(c1ccccc1)(c1ccccc1)P(=O)(c1ccccc1)c1ccccc1
EC50: > 200 µM
IC50: > 200 µM

O=C1C(C2CCCCC2)CCCC1(CO)CO (configuration not stated)
outcome: inactive

CCOC(=O)Nc1ccc2c(c1)c(CCCCCCc1nc3ccccc3c3ccc(NC(=O)OCC)cc13)nc1ccccc12
EC50: > 100 µM
IC50: 21.4 µM

O=C1CCCc2c(O)ccc(O)c21
EC50: > 380 µM
IC50: 60.3 µM

O=c1[nH]c(=O)n(C2OC(CO)C(O)C2O)c2nc(-c3ccc(-c4ccccc4)cc3)cnc12 (configuration not stated)
EC50: > 200 µM
IC50: > 200 µM

CC(=O)[CH-]C(C)=O.CC(=O)[CH-]C(C)=O.N=CC=N.[Sn+2]
EC50: > 69.2 µM
IC50: 1.45 µM

CCc1occc(=O)c1O
EC50: > 1780 µM
IC50: 339 µM

CCOP(=O)(OCC)/C(C#N)=C/c1ccc(C(F)(F)F)cc1
EC50: > 107 µM
IC50: 57.5 µM

COc1ccc2c(c1)NC1(O)c3ccccc3C(=O)C21O (configuration not stated)
EC50: > 331 µM
IC50: > 331 µM

CCOc1ccccc1NC(=O)C1=C(C)NC(C)=C(C(=O)Nc2ccccc2OCC)C1c1cccc([N+](=O)[O-])c1
EC50: > 12.9 µM
IC50: > 12.9 µM

Cn1cnnc1SC(F)(F)c1nc2ccccc2o1
EC50: 191 µM
IC50: > 200 µM

CC1=C(C#N)C2(C(=O)N(C)c3ccccc32)C(C#N)=C(C)N1c1ccccc1
EC50: > 14.1 µM
IC50: > 14.1 µM

NCCN.NCCN.O=C([O-])CCl.O=C([O-])CCl.[Co+3].[O-][Cl+3]([O-])([O-])[O-]
outcome: inactive

CC(=O)OC(CC1(C)C(C)CCC23COC(=O)C2=CCCC31)c1ccoc1 (configuration not stated)
EC50: > 69.2 µM
IC50: 30.2 µM

CCC[CH2][Sn]1([CH2]CCC)[O]C(=O)c2ccc(N)cc2[O]1
outcome: inactive

CC1(C)[C@H]2Cc3cc4nc5ccccn5c4cc3[C@@H]1C2
EC50: > 200 µM
IC50: 24 µM

N=C1N=C(N)c2cc3c(cc21)SCCSCCCSCCS3
EC50: > 50.1 µM
IC50: 8.51 µM

Brc1cnc2nsnc2c1
outcome: inactive

CC1=NC(=Cc2cc(Br)cc(Br)c2)C(=O)N1n1c(-c2ccccc2)nc2ccccc2c1=O
EC50: > 200 µM
IC50: 87.1 µM

COc1ccc2nc3cc(Cl)ccc3c(Nc3ccc(S(=O)(=O)Nc4nccs4)cc3)c2c1
EC50: > 9.77 µM
IC50: > 9.77 µM

CC(=O)Nc1nnc(SSc2nnc(NC(C)=O)s2)s1
EC50: 36.3 µM
IC50: 186 µM

Nc1nc(Cl)cc(OCC2(CO)CC2)n1
EC50: > 200 µM
IC50: > 200 µM

Cc1c2ccc(Cl)cc2nc2ccc(OCCCCCCNC(=O)[C@@H](N)CCCN=C(N)N)cc12
EC50: > 100 µM
IC50: 15.5 µM

O=S(=O)(O)c1cc(O)c(N=NC2S(=O)(=O)OCCOS2(=O)=O)c2ccccc12
EC50: > 200 µM
IC50: 77.6 µM

COC1=C(N)C(=O)c2nc(-c3nc(C(=O)O)c(C)c(-c4ccc(OC)c(OC)c4O)c3N)ccc2C1=O
EC50: > 4.9 µM
IC50: 0.00302 µM and 0.00191 µM

CN1CCN(c2nc3c(c(=O)n(C)c(=O)n3C)n2C)CC1
EC50: > 759 µM
IC50: > 759 µM

CC1C2C=CC1C(c1c3ccc(=O)c(O)c-3oc3c(O)c(O)ccc13)C2C(=O)O (configuration not stated)
EC50: 2.04 µM
IC50: > 200 µM

COc1cc(/C=C/C(=O)CC(=O)/C=C/c2ccc(OC(=O)CCCCC3CCSS3)c(OC)c2)ccc1OC(=O)CCCCC1CCSS1 (configuration not stated)
EC50: > 200 µM
IC50: > 200 µM

— PubChem BioAssay AID179 (DTP/NCI, 2004)
